4 compounds from paper PMC12035797, “Peptidomimetics Activating the Proteasome: A New Perspective for Parkinson’s Treatment” (Journal of Medicinal Chemistry, 2025) can be followed below.

Data set [1] can be described thus: Stability of the compounds in human plasma (UHPLC). It is filed as in vitro ADME. The note with it: 37 °C, 30 min. The method, then: We tested the proteolytic stability of the obtained peptidomimetics by incubating them with human plasma at 37 °C for 30 min. The process was monitored by UHPLC. Using mass spectrometry, the proteolytic degradation sites were determined (Figure 1B). […] Apparently, the modifications made the modulators considerably less susceptible to the action of proteases present in the plasma.
The modulators were incubated with human serum (Merck, Darmstadt, Germany) at 37 °C for 30 min. The compounds were dissolved in water, and their final concentration was 200 μM. Every 5 min, samples were taken from the incubated solution, and the reaction was stopped with 6% trichloroacetic acid (TCA) added to the sample in a 1:1 (v/v) ratio. Next, the samples were centrifuged for 10 min at 4 °C and 14,000 rpm. The supernatant was subjected to HPLC and MS analyses. The progress of proteolytic degradation of modulators was monitored using a UHPLC chromatograph (Shimadzu, Tokyo, Japan) with a Kinetex analytical column 100 mm × 2.1 mm, 2.6 μm, 100 Å (Phenomenex, Torrance, CA, USA) with UV detection at a wavelength of 223 nm. The degree of degradation was estimated based on the area of the peaks corresponding to the starting materials. In order to identify peptide fragments resulting from degradation, analysis was performed using an Autoflex maX MALDI TOF mass spectrometer (Bruker, […]). All experiments were performed in at least three independent replicates.

In data set [2] the test system is T1, human 20S proteasome, ChT-L peptidase.
T1 construct: human proteasome isolated from erythrocytes; from tissue; host or cells: human erythrocytes
Kind of data set: Chymotrypsin-like (ChT-L) activity of h20S probed with Suc-LLVY-AMC. Type of data set: biochemical. As to conditions: 100 μM Suc-LLVY-AMC, whole concentration range. The method, then: (§1) To assess the influence of substitutions increasing proteolytic stability on the modulators’ capacity to stimulate chymotrypsin-like, trypsin-like, and caspase-like activity of h20S, we used classic fluorogenic substrates: Suc-LLVY-AMC, Boc-LRR-AMC, and Z-LLE-AMC, respectively.
(§2) The effect of all synthesized peptidomimetics on the catalytic activity of the proteasome was tested using a human proteasome isolated from erythrocytes. Suc-LLVY-AMC, Boc-LRR-AMC, and Z-LLE-AMC fluorogenic substrates (Bachem, Bubendorf, Switzerland) were used for assessment of the chymotrypsin-, trypsin-, and caspase-like activities, respectively. A homemade FRET-type substrate Dabcyl-EDANS (Lys(Dabcyl)-[…]EDANS)-Gly)[26] was used as an additional probe. Stock solutions of the substrates and tested peptidomimetics were prepared in dimethyl sulfoxide (DMSO), ensuring that the final concentration of DMSO in all samples remained consistent at 2%. The small fluorogenic substrates were used at a final concentration of 100 μM, while Dabcyl-EDANS was prepared at a final concentration of 15 μM. […] Activity tests were conducted in 96-well plates using 50 mM Tris/HCl, pH 8.0, as an assay buffer. The final concentration of h20S proteasome was adjusted to 0.002 mg/mL (2.8 nM). The fluorescence of released aminomethylcoumarin (AMC) was monitored at 460 nm (λex was 380 nm), while the hydrolysis of Dabcyl-EDANS was detected by measuring emission at 493 nm (λex was set at 335 nm). Fluorescence measurements were taken continuously every 2 min over a 60 min period at 37 °C using a Tecan Infinite M200Pro spectrofluorometer (Tecan Trading AG, Männedorf, Switzerland). All activity assays were performed in at least three independent replicates. The relative activity was calculated in relation to the catalytic activity of the vehicle (DMSO)-treated latent proteasome, which was regarded as 100%. Statistical analysis was performed using the one-way ANOVA followed by Tukey’s post-hoc test. P-value <0.05 was considered statistically significant.

The subject of the next data set is T2, human 20S proteasome.
T2 construct: human proteasome isolated from erythrocytes; from tissue; host or cells: human erythrocytes
The data set can be described thus: h20S proteasome activity probed with FRET-type Dabcyl-EDANS substrate. Type of data set: biochemical. The note with it: 15 μM Dabcyl-EDANS, 1.0-50 μM modulator. From the text: (§3) To assess the influence of substitutions increasing proteolytic stability on the modulators’ capacity to stimulate chymotrypsin-like, trypsin-like, and caspase-like activity of h20S, we used classic fluorogenic substrates: Suc-LLVY-AMC, Boc-LRR-AMC, and Z-LLE-AMC, respectively. To confirm the observed stimulating capacity, we also conducted assays using a FRET-type reporter peptide with a sequence consisting of 11 residues (Lys(Dabcyl)-[…]EDANS)-Gly).[27] As we checked, the activated 20S hydrolyzed this substrate after more than one residue (Lys, Gly, and Glu), which makes it a probe better reflecting the concerted action of the proteasome’s three peptidases. […] The discrepancy in the level of activation was mainly due to the greater sensitivity of the FRET substrate, as it is not digested, unlike the AMC-based probes, by the latent proteasome, which results in greater differences in fluorescence relative to the controls. […] The ability to affect individual peptidases of the proteasome in different ways is most likely related to the allosteric mechanism of action of the modulators. Binding at a site distant from the catalytic compartment may result in greater diversity in the pathways by which the signal reaches active sites and differential effects of that signal on each peptidase.
(§4) The effect of all synthesized peptidomimetics on the catalytic activity of the proteasome was tested using a human proteasome isolated from erythrocytes. Suc-LLVY-AMC, Boc-LRR-AMC, and Z-LLE-AMC fluorogenic substrates (Bachem, Bubendorf, Switzerland) were used for assessment of the chymotrypsin-, trypsin-, and caspase-like activities, respectively. A homemade FRET-type substrate Dabcyl-EDANS (Lys(Dabcyl)-[…]EDANS)-Gly)[26] was used as an additional probe. Stock solutions of the substrates and tested peptidomimetics were prepared in dimethyl sulfoxide (DMSO), ensuring that the final concentration of DMSO in all samples remained consistent at 2%. The small fluorogenic substrates were used at a final concentration of 100 μM, while Dabcyl-EDANS was prepared at a final concentration of 15 μM. Modulators were tested in concentrations ranging from 1.0 to 50 μM, with compounds containing TAT or 6R sequences tested at lower concentrations ranging from 0.5 to 10 μM. Activity tests were conducted in 96-well plates using 50 mM Tris/HCl, pH 8.0, as an assay buffer. The final concentration of h20S proteasome was adjusted to 0.002 mg/mL (2.8 nM). The fluorescence of released aminomethylcoumarin (AMC) was monitored at 460 nm (λex was 380 nm), while the hydrolysis of Dabcyl-EDANS was detected by measuring emission at 493 nm (λex was set at 335 nm). Fluorescence measurements were taken continuously every 2 min over a 60 min period at 37 °C using a Tecan Infinite M200Pro spectrofluorometer (Tecan Trading AG, Männedorf, Switzerland). All activity assays were performed in at least three independent replicates. The relative activity was calculated in relation to the catalytic activity of the vehicle (DMSO)-treated latent proteasome, which was regarded as 100%. Statistical analysis was performed using the one-way ANOVA followed by Tukey’s post-hoc test. P-value <0.05 was considered statistically significant.

The subject of data set [3] is T3, human 20S proteasome, T-L peptidase.
T3 construct: human proteasome isolated from erythrocytes; from tissue; host or cells: human erythrocytes
Kind of data set: Trypsin-like (T-L) activity of h20S probed with Boc-LRR-AMC. As to conditions: 100 μM Boc-LRR-AMC. It is filed as biochemical. The method, then:
as §1, §2

For data set [4], the system named is T4, human 20S proteasome, C-L peptidase.
T4 construct: human proteasome isolated from erythrocytes; from tissue; host or cells: human erythrocytes
Kind of data set: Caspase-like (C-L) activity of h20S probed with Z-LLE-AMC. It is filed as biochemical. As to conditions: 100 μM Z-LLE-AMC.
From the text: as §3, §4

The structures appear in SMILES notation. Entries after “also recorded” stand apart in the source; their conditions may differ. Where a SMILES comes first, the peptide text is derived from it. [ ]: non-standard residue; d: D form. N(4-MeOBn)Gly = COc1ccc(CNCC(=O)O)cc1; NMeR = CN[C@@H](CCCNC(=N)N)C(=O)O; Gly(N-CH2CH2OH) = O=C(O)CNCCO; NMeS = CN[C@@H](CO)C(=O)O; Nlys = NCCCCNCC(=O)O

With `C[C@@H](O)[C@H](NC(=O)[C@H](Cc1ccccc1)NC(=O)[C@H](Cc1ccc(O)cc1)NC(=O)CNCCCCN)C(=O)NCC(=O)N[C@@H](CO)C(=O)N[C@@H](CCCCN)C(=O)N[C@@H](CC(=O)O)C(=O)N[C@@H](Cc1ccc(O)cc1)C(=O)N[C@@H](CCCNC(=N)N)C(=O)N[C@@H](CCCNC(=N)N)C(=O)N[C@@H](Cc1ccc(O)cc1)C(=O)N[C@@H](Cc1ccc(O)cc1)C(=O)N[C@@H](CO)C(=O)O` [compound 2a] (H-[Nlys]YFTGSKDYRRYYS-OH), the “proteolytic stability in human plasma” value in data set [1] is recorded as “very stable”. Besides, in data set [2], the “ChT-L stimulating capacity, Suc-LLVY-AMC” value was “most effective h20S stimulators”. Also, in the data set on human 20S proteasome, the “h20S stimulating capacity, Dabcyl-EDANS” value is reported as “most effective h20S stimulators; also recorded: effective activator”.
Taken in the same sequence, the figures for `C[C@@H](O)[C@H](NC(=O)[C@H](Cc1ccccc1)NC(=O)[C@H](Cc1ccc(O)cc1)NC(=O)CNCCCCN)C(=O)NCC(=O)N[C@@H](CO)C(=O)N[C@@H](CCCCN)C(=O)N[C@@H](CC(=O)O)C(=O)N[C@@H](Cc1c[nH]c2ccccc12)C(=O)N[C@@H](CCCNC(=N)N)C(=O)N(CCO)CC(=O)N[C@@H](Cc1ccc(O)cc1)C(=O)N[C@@H](Cc1ccc(O)cc1)C(=O)N[C@@H](CO)C(=O)O` [1c] (H-[Nlys]YFTGSKDWR[Gly(N-CH2CH2OH)]YYS-OH) were “most stable”, “lower capacity of activating h20S” and “less strongly than 1”.
Take `COc1ccc(CN(CC(=O)N[C@@H](CCCNC(=N)N)C(=O)N[C@@H](CCCNC(=N)N)C(=O)N[C@@H](Cc2ccc(O)cc2)C(=O)N[C@@H](Cc2ccc(O)cc2)C(=O)N[C@@H](CO)C(=O)O)C(=O)[C@H](CC(=O)O)NC(=O)[C@H](CCCCN)NC(=O)[C@H](CO)NC(=O)CNC(=O)[C@@H](NC(=O)[C@H](Cc2ccccc2)NC(=O)CN(Cc2ccc(OC)cc2)C(=O)[C@@H](N)CCCCN)[C@@H](C)O)cc1` [2f] (H-K[N(4-MeOBn)Gly]FTGSKD[N(4-MeOBn)Gly]RRYYS-OH): the “T-L stimulating capacity, Boc-LRR-AMC” value in data set [3] is listed as “weakest activators”. In data set [4], the “C-L stimulating capacity, Z-LLE-AMC” value is recorded as “weakest activators”. Besides, in data set [1], the “proteolytic stability in human plasma” value is recorded as “most stable”. Further, in data set [2], the “ChT-L stimulating capacity, Suc-LLVY-AMC” value was “least effective stimulants”. Besides, the “h20S stimulating capacity, Dabcyl-EDANS” value in the data set with human 20S proteasome is on record as “least effective stimulants”.
As a reminder, the fraction remaining is the share of the starting amount still present when the sample was taken. `C[C@@H](O)[C@H](NC(=O)[C@H](Cc1ccccc1)NC(=O)[C@H](Cc1ccc(O)cc1)NC(=O)[C@@H](N)CCCCN)C(=O)NCC(=O)N[C@@H](CO)C(=O)N[C@@H](CCCCN)C(=O)N[C@@H](CC(=O)O)C(=O)N[C@@H](Cc1c[nH]c2ccccc12)C(=O)N(C)[C@@H](CCCNC(=N)N)C(=O)N(C)[C@@H](CO)C(=O)N[C@@H](Cc1ccc(O)cc1)C(=O)N[C@@H](Cc1ccc(O)cc1)C(=O)N[C@@H](CO)C(=O)O` [compound 1d] (H-KYFTGSKDW[NMeR][NMeS]YYS-OH): the “T-L stimulating capacity, Boc-LRR-AMC” value in data set [3] was “poor activator”. For the same compound, the “C-L stimulating capacity, Z-LLE-AMC” value in data set [4] is on record as “moderate activator”. The amount remaining at 0.5 h in data set [1] (human, plasma, UHPLC, read-out: amount of compound remaining after incubation with human plasma) was less than 30%. Further, the “ChT-L stimulating capacity, Suc-LLVY-AMC” value in data set [2] is “lower capacity of activating h20S”. The “h20S stimulating capacity, Dabcyl-EDANS” value in the data set with human 20S proteasome is listed as “reached stimulation levels equal to those of the best activators; also recorded: less strongly than 1”.
